Data from ChEMBL document CHEMBL3045406, “Enantioselective Relieving Activity of α-Methylbenzylphenylureas toward Bensulfuron-methyl Injury to Rice (Oryza sativa)” (Biosci Biotechnol Biochem, 1999).

Assays:
Oryza sativa [1] = test: Relieving activity against bensulfuron-methyl induced injury to Oryza sativa (rice) assessed as growth rate at 0.1 uM (Rbv = 46 to 53%); type: functional
Oryza sativa [2] = test: Effect on Oryza sativa (rice) assessed as growth rate at 1 uM relative to control; type: organism-based; details: in vivo
Oryza sativa [3] = test: Effect on Oryza sativa (rice) assessed as growth rate at 10 uM relative to control; type: organism-based; details: in vivo
Oryza sativa [4] = test: Relieving activity against bensulfuron-methyl induced injury to Oryza sativa (rice) assessed as growth rate at 1 uM (Rbv = 46 to 53%); type: functional
Oryza sativa [5] = test: Safener indices, ratio of compound effect of Oryza sativa (rice) growth rate to relieving activity against bensulfuron-methyl induced injury to Oryza sativa growth rate at 10 uM
Oryza sativa [6] = test: Relieving activity against bensulfuron-methyl induced injury to Oryza sativa (rice) assessed as growth rate at 10 uM (Rbv = 46 to 53%); type: functional
[7] = Hydrophobicity, log K of the compound; type: physicochemical; details: octanol/water
Oryza sativa [8] = test: Effect on Oryza sativa (rice) assessed as growth rate at 0.1 uM relative to control; type: organism-based; details: in vivo
Oryza sativa [9] = test: Safener indices, ratio of compound effect of Oryza sativa (rice) growth rate to relieving activity against bensulfuron-methyl induced injury to Oryza sativa growth rate at 1 uM
Oryza sativa [10] = test: Safener indices, ratio of compound effect of Oryza sativa (rice) growth rate to relieving activity against bensulfuron-methyl induced injury to Oryza sativa growth rate at 0.1 uM

Compound | Activity (Oryza sativa [1]) | Activity (Oryza sativa [2]) | Activity (Oryza sativa [3]) | Activity (Oryza sativa [4]) | Ratio (Oryza sativa [5]) | Activity (Oryza sativa [6]) | log K [7] | Activity (Oryza sativa [8]) | Ratio (Oryza sativa [9]) | Ratio (Oryza sativa [10])
C[C@@H](NC(=O)Nc1cc(F)ccc1F)c1ccccc1 | 54% | 100% | 92% | 67% | 57 | 77% | 0.464 | 100% | 34 | 7
C[C@H](NC(=O)Nc1cc(F)ccc1F)c1ccccc1 | 74% | 98% | 99% | 89% | 92 | 96% | 0.464 | 100% | 77 | 47
C[C@@H](NC(=O)Nc1c(F)cccc1F)c1ccccc1 | 51% | 100% | 98% | 54% | 42 | 71% | 0.238 | 100% | 8 | 2
C[C@H](NC(=O)Nc1c(F)cccc1F)c1ccccc1 | 53% | 99% | 99% | 61% | 62 | 81% | 0.238 | 100% | 22 | 6
C[C@@H](NC(=O)Nc1ccc(F)c(F)c1)c1ccccc1 | 52% | 99% | 96% | 60% | 47 | 73% | 0.398 | 99% | 21 | 4
C[C@H](NC(=O)Nc1ccc(F)c(F)c1)c1ccccc1 | 57% | 100% | 98% | 70% | 64 | 82% | 0.398 | 99% | 41 | 14
C[C@@H](NC(=O)Nc1cc(F)cc(F)c1)c1ccccc1 | 54% | 98% | 96% | 59% | 33 | 65% | 0.452 | 98% | 20 | 10
C[C@H](NC(=O)Nc1cc(F)cc(F)c1)c1ccccc1 | 64% | 99% | 99% | 79% | 85 | 93% | 0.452 | 99% | 58 | 30
C[C@@H](NC(=O)Nc1cccc(Cl)c1Cl)c1ccccc1 | 59% | 100% | 99% | 80% | 78 | 89% | 0.646 | 100% | 58 | 14
C[C@H](NC(=O)Nc1cccc(Cl)c1Cl)c1ccccc1 | 89% | 100% | 101% | 96% | 96 | 98% | 0.646 | 100% | 91 | 76
C[C@@H](NC(=O)Nc1ccc(Cl)c(Cl)c1)c1ccccc1 | 57% | 96% | 93% | 66% | 56 | 77% | 0.61 | 98% | 34 | 15
C[C@H](NC(=O)Nc1ccc(Cl)c(Cl)c1)c1ccccc1 | 70% | 97% | 99% | 78% | 81 | 90% | 0.61 | 98% | 57 | 39
C[C@@H](NC(=O)Nc1cccc(C(F)(F)F)c1F)c1ccccc1 | 68% | 99% | 98% | 90% | 92 | 96% | 0.624 | 99% | 79 | 33
C[C@H](NC(=O)Nc1cccc(C(F)(F)F)c1F)c1ccccc1 | 76% | 98% | 100% | 92% | 96 | 98% | 0.624 | 99% | 84 | 51
C[C@@H](NC(=O)Nc1cc(C(F)(F)F)ccc1F)c1ccccc1 | 53% | 70% | 60% | 55% | 40 | 59% | 0.64 | 87% | 28 | 13
C[C@H](NC(=O)Nc1cc(C(F)(F)F)ccc1F)c1ccccc1 | 64% | 89% | 87% | 79% | 70 | 84% | 0.64 | 98% | 59 | 26
Cc1cc(F)ccc1NC(=O)N[C@H](C)c1ccccc1 | 54% | 100% | 94% | 57% | 48 | 74% | 0.356 | 100% | 9 | 3
Cc1cc(F)ccc1NC(=O)N[C@@H](C)c1ccccc1 | 56% | 98% | 96% | 71% | 62 | 81% | 0.356 | 99% | 40 | 9
Cc1ccc(NC(=O)N[C@H](C)c2ccccc2)c(F)c1 | 57% | 99% | 99% | 79% | 78 | 89% | 0.459 | 98% | 55 | 11
Cc1ccc(NC(=O)N[C@@H](C)c2ccccc2)c(F)c1 | 77% | 99% | 100% | 87% | 89 | 95% | 0.459 | 100% | 72 | 53
C[C@@H](NC(=O)Nc1ccc(Cl)cc1Cl)c1ccccc1 | 61% | 99% | 100% | 65% | 47 | 75% | 0.688 | 101% | 29 | 20
C[C@H](NC(=O)Nc1ccc(Cl)cc1Cl)c1ccccc1 | 68% | 100% | 99% | 80% | 73 | 87% | 0.688 | 100% | 59 | 33
C[C@@H](NC(=O)Nc1cc(Cl)ccc1Cl)c1ccccc1 | 64% | 100% | 101% | 68% | 52 | 77% | 0.704 | 99% | 37 | 26
C[C@H](NC(=O)Nc1cc(Cl)ccc1Cl)c1ccccc1 | 79% | 99% | 100% | 85% | 82 | 91% | 0.704 | 100% | 69 | 56
C[C@@H](NC(=O)Nc1c(Cl)cccc1Cl)c1ccccc1 | 57% | 99% | 100% | 61% | 21 | 61% | 0.326 | 100% | 19 | 12
C[C@H](NC(=O)Nc1c(Cl)cccc1Cl)c1ccccc1 | 62% | 99% | 99% | 69% | 47 | 74% | 0.326 | 100% | 36 | 21
C[C@@H](NC(=O)Nc1cc(Cl)cc(Cl)c1)c1ccccc1 | 58% | 99% | 99% | 63% | 37 | 69% | 0.703 | 99% | 25 | 14
C[C@H](NC(=O)Nc1cc(Cl)cc(Cl)c1)c1ccccc1 | 74% | 100% | 99% | 80% | 76 | 88% | 0.703 | 99% | 59 | 46
